Results published in PubChem BioAssay (NCI).
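Tested at 5 concentrations; 48 h exposure; 96-well plates; endpoints linearly interpolated, else capped at highest concentration. Here, GI50 denotes the concentration required for 50% inhibition of growth. TGI marks complete inhibition of growth.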

Key:
Assay in all cases: inhibition of tumour cell growth, NCI panel, 48 h
UACC-62 melanoma = system: UACC-62 melanoma
KM12 colon = system: KM12 colon
MALME-3M melanoma = system: MALME-3M melanoma
MDA-MB-435 = system: MDA-MB-435
HCT-116 colon = system: HCT-116 colon
A498 renal = system: A498 renal
OVCAR-5 ovarian = system: OVCAR-5 ovarian
EKVX NSCLC = system: EKVX NSCLC
MCF7 breast = system: MCF7 breast
HCC-2998 colon = system: HCC-2998 colon
SK-OV-3 ovarian = system: SK-OV-3 ovarian
MDA-MB-231 breast = system: MDA-MB-231 breast
CCRF-CEM leukemia = system: CCRF-CEM leukemia
SF-539 CNS = system: SF-539 CNS
SF-295 CNS = system: SF-295 CNS
TK-10 renal = system: TK-10 renal
OVCAR-8 ovarian = system: OVCAR-8 ovarian
NCI-H522 lung = system: NCI-H522 lung
RPMI-8226 leukemia = system: RPMI-8226 leukemia
SR leukemia = system: SR leukemia
HOP-92 NSCLC = system: HOP-92 NSCLC
BT-549 breast = system: BT-549 breast
ACHN renal = system: ACHN renal
SN12C renal = system: SN12C renal
RXF 393 renal = system: RXF 393 renal
HOP-62 NSCLC = system: HOP-62 NSCLC
SK-MEL-5 melanoma = system: SK-MEL-5 melanoma
OVCAR-4 ovarian = system: OVCAR-4 ovarian
UACC-257 melanoma = system: UACC-257 melanoma
786-0 renal = system: 786-0 renal
SNB-75 CNS = system: SNB-75 CNS
A549 NSCLC = system: A549 NSCLC
HCT-15 colon = system: HCT-15 colon
U251 CNS = system: U251 CNS
PC-3 prostate = system: PC-3 prostate
NCI-H460 lung = system: NCI-H460 lung
NCI/ADR-RES ovarian = system: NCI/ADR-RES ovarian
HT29 colon = system: HT29 colon
UO-31 renal = system: UO-31 renal
CAKI-1 renal = system: CAKI-1 renal
MDA-MB-468 breast = system: MDA-MB-468 breast
M14 melanoma = system: M14 melanoma
SW-620 colon = system: SW-620 colon
LOX IMVI melanoma = system: LOX IMVI melanoma
SF-268 CNS = system: SF-268 CNS
SK-MEL-28 melanoma = system: SK-MEL-28 melanoma
SNB-19 CNS = system: SNB-19 CNS
T-47D breast = system: T-47D breast
DU-145 prostate = system: DU-145 prostate
NCI-H23 lung = system: NCI-H23 lung
NCI-H226 lung = system: NCI-H226 lung
K-562 leukemia = system: K-562 leukemia
MOLT-4 leukemia = system: MOLT-4 leukemia
IGROV1 ovarian = system: IGROV1 ovarian
HL-60(TB) leukemia = system: HL-60(TB) leukemia
SK-MEL-2 melanoma = system: SK-MEL-2 melanoma
HS 578T breast = system: HS 578T breast
OVCAR-3 ovarian = system: OVCAR-3 ovarian
COLO 205 colon = system: COLO 205 colon

Compound `O=C(CSc1nnc(-c2ccc3nc(-c4ccc(Cl)cc4)[nH]c3c2)o1)Nc1ccc(Br)cc1` has a GI50 (UACC-62 melanoma) of 4.63 µM, a TGI (UACC-62 melanoma) of 16.8 µM and a GI50 (KM12 colon) of 10.4 µM. For the same compound, the TGI (KM12 colon) was 41.5 µM, the GI50 (MALME-3M melanoma) was 3.83 µM and the TGI (MALME-3M melanoma) was 15.4 µM. It also gave a GI50 (MDA-MB-435) of 2.9 µM, a TGI (MDA-MB-435) of 9.3 µM and a GI50 (HCT-116 colon) of 2.78 µM. The TGI (HCT-116 colon) was 7.81 µM, the GI50 (A498 renal) was 18.8 µM and the TGI (A498 renal) was 34.8 µM. It also gave a GI50 (OVCAR-5 ovarian) of 14.2 µM, a TGI (OVCAR-5 ovarian) of 29.5 µM and a GI50 (EKVX NSCLC) of 9.52 µM. The TGI (EKVX NSCLC) was 21.6 µM, the GI50 (MCF7 breast) was 3.86 µM and the TGI (MCF7 breast) was 17.7 µM. It also gave a GI50 (HCC-2998 colon) of 8.56 µM, a TGI (HCC-2998 colon) of 20.9 µM and a GI50 (SK-OV-3 ovarian) of 16.5 µM. For the same compound, the TGI (SK-OV-3 ovarian) was 31.7 µM, the GI50 (MDA-MB-231 breast) was 2.37 µM and the TGI (MDA-MB-231 breast) was 6.07 µM. The GI50 (CCRF-CEM leukemia) was 3.33 µM, the TGI (CCRF-CEM leukemia) was 20.4 µM and the GI50 (SF-539 CNS) was 2.86 µM. The TGI (SF-539 CNS) was 9.19 µM, the GI50 (SF-295 CNS) was 6.17 µM and the TGI (SF-295 CNS) was 19.2 µM. For the same compound, the GI50 (TK-10 renal) was 20.2 µM, the TGI (TK-10 renal) was 36.8 µM and the GI50 (OVCAR-8 ovarian) was 3.9 µM. It also gave a TGI (OVCAR-8 ovarian) of 19.4 µM, a GI50 (NCI-H522 lung) of 4.73 µM and a TGI (NCI-H522 lung) of 19.8 µM. The GI50 (RPMI-8226 leukemia) was 8.26 µM, the TGI (RPMI-8226 leukemia) was 86.3 µM and the GI50 (SR leukemia) was 9.89 µM. The TGI (SR leukemia) was over 100 µM, the GI50 (HOP-92 NSCLC) was 3.55 µM and the TGI (HOP-92 NSCLC) was 15.7 µM. For the same compound, the GI50 (BT-549 breast) was 2.66 µM, the TGI (BT-549 breast) was 6.12 µM and the GI50 (ACHN renal) was 3.47 µM. The TGI (ACHN renal) was 12.5 µM, the GI50 (SN12C renal) was 2.91 µM and the TGI (SN12C renal) was 11.2 µM. The GI50 (RXF 393 renal) was 2.6 µM, the TGI (RXF 393 renal) was 8.42 µM and the GI50 (HOP-62 NSCLC) was 5.96 µM. The TGI (HOP-62 NSCLC) was 20.2 µM, the GI50 (SK-MEL-5 melanoma) was 3.69 µM and the TGI (SK-MEL-5 melanoma) was 13.6 µM. For the same compound, the GI50 (OVCAR-4 ovarian) was 6.65 µM, the TGI (OVCAR-4 ovarian) was 26.7 µM and the GI50 (UACC-257 melanoma) was 5.65 µM. For the same compound, the TGI (UACC-257 melanoma) was 20.5 µM, the GI50 (786-0 renal) was 2.13 µM and the TGI (786-0 renal) was 4.76 µM. It also gave a GI50 (SNB-75 CNS) of 2.36 µM, a TGI (SNB-75 CNS) of 14.1 µM and a GI50 (A549 NSCLC) of 3.89 µM. It also gave a TGI (A549 NSCLC) of 19.8 µM, a GI50 (HCT-15 colon) of 4.18 µM and a TGI (HCT-15 colon) of 16.3 µM. For the same compound, the GI50 (U251 CNS) was 2.69 µM, the TGI (U251 CNS) was 6.66 µM and the GI50 (PC-3 prostate) was 3.28 µM. For the same compound, the TGI (PC-3 prostate) was 16.6 µM, the GI50 (NCI-H460 lung) was 2.39 µM and the TGI (NCI-H460 lung) was 5.78 µM. The GI50 (NCI/ADR-RES ovarian) was 4.31 µM, the TGI (NCI/ADR-RES ovarian) was 15.7 µM and the GI50 (HT29 colon) was 5.66 µM. For the same compound, the TGI (HT29 colon) was 27.3 µM, the GI50 (UO-31 renal) was 11.8 µM and the TGI (UO-31 renal) was 24 µM. It also gave a GI50 (CAKI-1 renal) of 3.74 µM, a TGI (CAKI-1 renal) of 14.9 µM and a GI50 (MDA-MB-468 breast) of 5.31 µM. It also gave a TGI (MDA-MB-468 breast) of 17.6 µM, a GI50 (M14 melanoma) of 2.56 µM and a TGI (M14 melanoma) of 6.09 µM. For the same compound, the GI50 (SW-620 colon) was 4.99 µM, the TGI (SW-620 colon) was 18.5 µM and the GI50 (LOX IMVI melanoma) was 1.63 µM. It also gave a TGI (LOX IMVI melanoma) of 2.98 µM, a GI50 (SF-268 CNS) of 5.66 µM and a TGI (SF-268 CNS) of 22.3 µM. It also gave a GI50 (SK-MEL-28 melanoma) of 5.04 µM, a TGI (SK-MEL-28 melanoma) of 17.5 µM and a GI50 (SNB-19 CNS) of 4.2 µM. The TGI (SNB-19 CNS) was 14.6 µM, the GI50 (T-47D breast) was 18.3 µM and the TGI (T-47D breast) was 65.8 µM. For the same compound, the GI50 (DU-145 prostate) was 5.83 µM, the TGI (DU-145 prostate) was 19.1 µM and the GI50 (NCI-H23 lung) was 2.4 µM. It also gave a TGI (NCI-H23 lung) of 6.17 µM, a GI50 (NCI-H226 lung) of 3.45 µM and a TGI (NCI-H226 lung) of 16 µM. It also gave a GI50 (K-562 leukemia) of 3.2 µM, a TGI (K-562 leukemia) of 15.1 µM and a GI50 (MOLT-4 leukemia) of 3.19 µM. The TGI (MOLT-4 leukemia) was 15.4 µM, the GI50 (IGROV1 ovarian) was 10.6 µM and the TGI (IGROV1 ovarian) was 23 µM. It also gave a GI50 (HL-60(TB) leukemia) of 2.91 µM, a TGI (HL-60(TB) leukemia) of 15.6 µM and a GI50 (SK-MEL-2 melanoma) of 4.74 µM. It also gave a TGI (SK-MEL-2 melanoma) of 18.4 µM, a GI50 (HS 578T breast) of 4.09 µM and a TGI (HS 578T breast) of 24.7 µM. The GI50 (OVCAR-3 ovarian) was 11.3 µM, the TGI (OVCAR-3 ovarian) was 28.2 µM and the GI50 (COLO 205 colon) was 12.8 µM. The TGI (COLO 205 colon) was 27.5 µM.
